Measured values as given in the Deep4Chem optical property database.
Where “and” joins values, the source holds several entries; their conditions need not be identical. Equal values may be shown once. Blank lines part the entries; values can stand above or below the compound they belong to.

Assay: solvent given as SMILES

Compound: COCCOc1cc(C=O)c(OCCOC)cc1C=O
emission maximum (in CC(C)(C)O): 478 nm
emission maximum (in CC(C)CO): 479 nm
emission maximum (in CC(C)O): 479 nm
emission maximum (in CCCCO): 462 nm
emission maximum (in CCCO): 463 nm
emission maximum (in CCO): 464 nm
emission maximum (in CN(C)C=O): 465 nm
emission maximum (in CNC=O): 450 nm
emission maximum (in CO): 466 nm
emission maximum (in NC=O): 456 nm
emission maximum (in O): 495 nm

Compound: Cc1cc(C)c2c(c1)c1cc(C)cc(C)c1n2-c1ccc2c(c1)B(c1c(C(C)C)cc(C(C)C)cc1C(C)C)c1cc(-n3c4c(C)cc(C)cc4c4cc(C)cc(C)c43)ccc1N2c1ccccc1
emission maximum (in C1CCOC1): 447.96 nm
emission maximum (in CCOC(C)=O): 447.96 nm
emission maximum (in Cc1ccccc1): 441.5 nm
emission maximum (in ClCCl): 453.4 nm
emission maximum (in c1cc(-c2cccc(-n3c4ccccc4c4ccccc43)c2)cc(-n2c3ccccc3c3ccccc32)c1): 451 nm

Compound: COCCC1=Cc2nc1ccc1[nH]c(cc1CCOC)c1nc(c(N3C(=O)CCCC3=O)cc3[nH]c2cc3CCOC)C(CCOC)=C1
emission maximum (in Cc1ccccc1): 646 nm

Compound: N#Cc1c(-n2c3ccccc3c3cc(I)ccc32)c(C#N)c(-n2c3ccccc3c3cc(I)ccc32)c(-n2c3ccccc3c3cc(I)ccc32)c1-n1c2ccccc2c2cc(I)ccc21
emission maximum (in Cc1ccccc1): 518 nm

Compound: CCCCCCCCOc1ccc(-c2c3c4n(c(-c5ccc(OCCCCCCCC)cc5)c3c3n2[B-](c2ccccc2)(c2ccccc2)[n+]2c(ccc5cc(C(C)(C)C)ccc52)C=3C#N)[B-](c2ccccc2)(c2ccccc2)[n+]2c(ccc3cc(C(C)(C)C)ccc32)C=4C#N)cc1
emission maximum (in ClC(Cl)Cl): 831 nm

Compound: c1ccc(-c2cc(-c3ccc4c(c3)C3(c5ccccc5-c5ccccc53)c3cc(-c5cc(-c6ccccn6)nc(-c6ccccn6)c5)ccc3-4)cc(-c3ccccn3)n2)nc1
emission maximum (in ClC(Cl)Cl): 395 nm

Compound: O=S(=O)(c1ccccc1)c1ccc(-c2ccc3c4ccc(-c5ccc(S(=O)(=O)c6ccccc6)cc5)cc4n(-c4ccccc4)c3c2)cc1
emission maximum (in CCCCCC): 409 nm
emission maximum (in CN(C)C=O): 437 nm
emission maximum (in CO): 434 nm
emission maximum (in Cc1ccccc1): 413 nm
emission maximum (in ClCCl): 411 nm

Compound: c1ccc2cc(-n3cnc4ccccc43)ccc2c1
emission maximum (in C1CCCCC1): 374 nm
emission maximum (in C1CCOC1): 374 nm
emission maximum (in CC#N): 376 nm
emission maximum (in CCO): 376 nm
emission maximum (in CCOC(C)=O): 375 nm
emission maximum (in CCOCC): 376 nm
emission maximum (in CO): 377 nm
emission maximum (in Cc1ccccc1): 374 nm
emission maximum (in ClC(Cl)Cl): 375 nm

Compound: COc1ccc(-c2nc(C)cc(-c3ccc(-n4c5ccccc5c5ccccc54)cc3)n2)cc1
emission maximum (in C1CCOC1): 418 nm
emission maximum (in CN(C)C=O): 453 nm
emission maximum (in Cc1ccccc1): 390 nm
emission maximum (in ClC(Cl)Cl): 421 nm

Compound: CCc1ccc(-c2nc(-c3ccc(-n4c5ccccc5c5ccccc54)cc3)cc(-c3ccc(-n4c5ccccc5c5ccccc54)cc3)n2)cc1
emission maximum (in C1CCOC1): 436 nm
emission maximum (in CN(C)C=O): 482 nm
emission maximum (in Cc1ccccc1): 402 nm
emission maximum (in ClC(Cl)Cl): 435 nm

Compound: CCN(CC)c1ccc(-c2nc(Oc3ccc(-c4nc5cc([N+](=O)[O-])ccc5[nH]4)cc3)nc(Oc3ccc(-c4nc5cc([N+](=O)[O-])ccc5[nH]4)cc3)n2)cc1
emission maximum (in CN(C)C=O): 429 nm

Compound: COc1cc(C(=O)O)cc(OC)c1O
emission maximum (in O): 333 nm

Compound: CC1=CC(c2ccc3cc(N(C)C)ccc3c2)=[O+][B-](F)(F)O1
emission maximum (in C1CCOC1): 566 nm
emission maximum (in CC#N): 611 nm
emission maximum (in CC(C)=O): 492 nm
emission maximum (in CS(C)=O): 624 nm
emission maximum (in Cc1ccccc1): 521 nm
emission maximum (in ClC(Cl)Cl): 552 nm
emission maximum (in ClCCl): 574 nm

Compound: CC1(C)c2ccccc2N(c2ccc3c(c2)C(c2ccccc2)(c2ccccc2)c2cc(N4c5ccccc5C(C)(C)c5ccccc54)ccc2S3(=O)=O)c2ccccc21
emission maximum (in Cc1ccccc1): 448 nm

Compound: CN(C)c1ccc(/C=C/C(=O)O)cc1
emission maximum (in C1CCCCC1): 399 nm
emission maximum (in C1CCOC1): 418 nm
emission maximum (in C1COCCO1): 414 nm
emission maximum (in CC#N): 445 nm
emission maximum (in CCCCO): 439 nm
emission maximum (in CCCO): 441 nm
emission maximum (in CCOC(C)=O): 421 nm
emission maximum (in CO): 453 nm
emission maximum (in Cc1ccccc1): 413 nm
emission maximum (in O): 453 nm
emission maximum (in c1ccccc1): 416 nm

Compound: O=C(c1ccccc1)c1cc2ccc1CCc1ccc(cc1-c1ccc(N(c3ccccc3)c3ccccc3)cc1)CC2
emission maximum (in Cc1ccccc1): 492 nm
emission maximum (in c1cc(-n2c3ccccc3c3ccccc32)cc(-n2c3ccccc3c3ccccc32)c1): 481.13 nm

Compound: CC[n+]1nc2cc3c4c(c2c2cc(C)ccc21)CCCN4CCC3
emission maximum (in O): 571 nm

Compound: COc1ccccc1C1=C2C(C)=CC(C)=[N+]2[B-](F)(F)n2c(C)cc(C)c21
emission maximum (in C1CCOC1): 516 nm
emission maximum (in CC#N): 512 nm
emission maximum (in CC(=O)C(C)(C)C): 514 nm
emission maximum (in CC(C)=O): 513 nm
emission maximum (in CCCCCC): 516 nm
emission maximum (in CCOC(C)=O): 514 nm
emission maximum (in CO): 514 nm

Compound: CCCC1(CCC)c2cc(-c3ccc(C(C)(C)C)cc3)ccc2-c2ccc(-c3ccc4c(c3)C(CCC)(CCC)c3cc(-c5ccc(C(C)(C)C)cc5)ccc3-4)cc21
emission maximum (in C1CCCCC1): 395 nm

Compound: CCN(CC)c1ccc(-c2ccc(-c3nc(N4CCOCC4)c4ccccc4n3)s2)cc1
emission maximum (in CC#N): 544 nm
emission maximum (in Cc1ccccc1): 476 nm

Compound: N#Cc1nc2c3ccc(N(c4ccccc4)c4ccccc4)cc3c3cc(N(c4ccccc4)c4ccccc4)ccc3c2nc1C#N
emission maximum (in C1COCCO1): 586.91 nm
emission maximum (in CCCCCC): 515.27 nm
emission maximum (in Cc1ccccc1): 566 nm
emission maximum (in ClC(Cl)Cl): 639.45 nm
emission maximum (in O=P(c1ccccc1)(c1ccccc1)c1cccc(-c2cc(-n3c4ccccc4c4ccccc43)cc(-n3c4ccccc4c4ccccc43)c2)n1): 606 nm

Compound: Cc1ccc(N(c2ccc(C)cc2)c2ccc(-c3ccc(-c4ccc(N(c5ccc(C)cc5)c5ccc(C)cc5)cc4)c4nsnc34)cc2)cc1
emission maximum (in Cc1ccccc1): 628 nm
emission maximum (in ClCCl): 609 nm

Compound: c1ccc(-c2nc3c(c4c2-c2ccccc2CC4)-c2ccccc2CC3)cc1
emission maximum (in C1CCOC1): 362 nm
emission maximum (in CC#N): 360 nm
emission maximum (in CCCCCC): 363 nm
emission maximum (in CCOC(C)=O): 359 nm
emission maximum (in CO): 362 nm
emission maximum (in CS(C)=O): 360 nm
emission maximum (in Cc1ccccc1): 361 nm
emission maximum (in ClCCl): 361 nm

Compound: Cc1cc(N(C)C)cc(C)c1/C=C/C=C/c1ccc(C#N)cc1
emission maximum (in CC#N): 599 nm
emission maximum (in CCCCCC): 442 nm
emission maximum (in CCOCC): 527 nm

Compound: Cc1cc(-c2ccc(-n3c4ccccc4c4ccccc43)cc2)nc(-c2ccc(-n3c4ccccc4c4ccccc43)cc2)n1
emission maximum (in C1CCOC1): 423 nm
emission maximum (in CN(C)C=O): 461 nm
emission maximum (in Cc1ccccc1): 398 nm
emission maximum (in ClC(Cl)Cl): 426 nm

Compound: CCCCC(CC)CN1C(=O)C2=C(c3ccc(-c4ccc(C5=C6C(C)=CC(C)=[N+]6[B-](F)(F)n6c(C)cc(C)c65)cc4)s3)N(CC(CC)CCCC)C(=O)C2=C1c1ccc(-c2ccc(C3=C4C(C)=CC(C)=[N+]4[B-](F)(F)n4c(C)cc(C)c43)cc2)s1 (stereo not drawn)
emission maximum (in Cc1ccccc1): 637 nm

More lines, now with the values ahead:

emission maximum (in ClC(Cl)Cl): 649 nm
Compound: Cc1cc(C)c(C2=C3C=CC=[N+]3[B-]3(F)Oc4cc(O)cc5c6ccc(C)cc6c6cc2n3c6c45)c(C)c1 (stereo not drawn)

emission maximum (in ClCCl): 434 nm
Compound: CC(C)c1cccc(C(C)C)c1N1C(=O)c2cccc3c(Oc4ccc(C(C)(C)C)cc4)ccc(c23)C1=O

emission maximum (in ClCCl): 653 nm
Compound: Cc1ccc(-c2c3nc(c(-c4ccc(C)cc4)c4ccc([nH]4)c(-c4ccc(OC(=O)C(C)c5ccc(-c6ccccc6)c(F)c5)cc4)c4nc(c(-c5ccc(C)cc5)c5ccc2[nH]5)C=C4)C=C3)cc1 (stereo not drawn)

emission maximum (in CC#N): 424 nm
emission maximum (in CCCCCC): 375 nm
Compound: Cc1cccc(C)c1Nc1ccc(/C=C/c2ccccc2)cc1

emission maximum (in ClCCl): 546 nm
Compound: Clc1ccc(N2c3sc4ccccc4c3Sc3c2sc2ccccc32)cc1

emission maximum (in CCO): 440 nm
emission maximum (in ClCCl): 439 nm
Compound: c1cnc(-c2c3ccccc3c(-c3ncccn3)c3ccccc23)nc1

emission maximum (in ClCCl): 545 nm
Compound: c1ccc(C2=C(c3ccccc3)c3cccc4c5c(cc(c34)O2)=NC2CCCCC2N=5)cc1 (stereo not drawn)

emission maximum (in O): 590 nm
Compound: CC[n+]1c(-c2ccccc2)c2cc(N)ccc2c2ccc(NC(N)=[NH2+])cc21

emission maximum (in C1CCCCC1): 393 nm
emission maximum (in CC#N): 474 nm and 475 nm
emission maximum (in CC(C)O): 468 nm and 488.03 nm
emission maximum (in CO): 484 nm and 483 nm
emission maximum (in CS(C)=O): 486 nm and 486.82 nm
emission maximum (in ClC(Cl)Cl): 442 nm and 443 nm
emission maximum (in c1ccccc1): 429 nm and 441.38 nm
Compound: CN(C)c1ccc2nc(-c3ccccc3)sc2c1

emission maximum (in ClC(Cl)Cl): 588 nm
Compound: F[B-]1(F)n2c(ccc2-c2ccccc2)C(c2ccc(I)cc2)=C2C=CC(c3ccccc3)=[N+]21

emission maximum (in ClCCl): 478 nm
Compound: O=c1c2cc(C#Cc3ccccc3)ccc2nc2ccc(C#Cc3ccccc3)cn12

emission maximum (in ClCCl): 556 nm
Compound: COc1ccc(/C=C/C2=[O+][B-](F)(F)OC(/C=C/c3ccc(OC)cc3)=C2c2cccc(OC)c2)cc1

emission maximum (in CC#N): 449 nm
Compound: C[C@@]12SC(Cl)=CC1=c1nc(-c3ccc(Cl)cc3)[nH]c1=C1C=C(Cl)S[C@]12C

emission maximum (in C1CCCCC1): 503 nm
emission maximum (in C1CCOC1): 540 nm
emission maximum (in CC#N): 570 nm
emission maximum (in CS(C)=O): 580 nm
emission maximum (in ClCCl): 545 nm
Compound: CN(C)c1ccc(/C=C/c2nc(/C=C/c3ccc(N(C)C)cc3)c3ccccc3n2)cc1

emission maximum (in C1CCOC1): 734 nm
emission maximum (in CC#N): 733 nm
emission maximum (in ClCCl): 736 nm
Compound: CCC(CC)COC1=CC2=C3c4cc(OCC(CC)CC)c(-c5ccccc5)n4[B-](F)(F)[n+]4c3n(c3cc(C(C)(C)C)ccc34)[B-](F)(F)[N+]2=C1c1ccccc1

emission maximum (in ClC(Cl)Cl): 556 nm
Compound: CC1=[N+]2C(=C(c3c4ccccc4cc4ccccc34)c3ccc(/C=C/C(C)(C)C)n3[B-]2(F)F)C=C1

emission maximum (in ClCCl): 419 nm
Compound: c1ccc(-c2cn3ccc[n+]3[n-]2)cc1

emission maximum (in ClCCl): 400 nm
Compound: C1=C(c2ccccc2)[Si](c2ccccc2)(c2ccccc2)c2ccccc21

emission maximum (in C1CCOC1): 432 nm
Compound: O=S1(=O)C(c2cccs2)=C(c2cccs2)c2ccccc21

emission maximum (in ClC(Cl)Cl): 434 nm
Compound: Cc1ccccc1C1CC(=O)Oc2c1c1nc3ccccc3nc1c1ccccc21 (stereo not drawn)
